Counter-ions that a name gives are not always drawn. Blank lines part the entries; values can stand above or below the compound they belong to.
Assays:
[1] = three times a day, pramipexole dihydrochloride tablets (Wright et al. 1997); cited from earlier work
D3 receptors = D3 receptors (Homo sapiens, UniProt P35462); conditions: cited from earlier work
[2] = system: D2 subfamily of dopamine receptors; conditions: in vitro; cited from earlier work
[3] = Lowest effective concentration of sodium metabisulfite on pramipexole color stability (Example 4); assay type: physicochemical; conditions: pramipexole hydrochloride 2.00% (FBE) hydro-alcoholic mixture at apparent pH around 8.0
Method: A formulation free of antioxidants served as a blank reference (Formulation F).
In parallel, samples stored at 40° C. in a climatic chamber (C-20/600, Climat Temperatur System, Hechingen, Germany) for 1 month were assessed for color as well. […] The formulation containing the lowest level of sodium metabisulfite (0.10% wt, formulation C) was ranked “BY2”. All the other formulations were colorless.

[4] = levodopa taken alone; cited from earlier work

Chain of D3 receptors (P35462 whole entry): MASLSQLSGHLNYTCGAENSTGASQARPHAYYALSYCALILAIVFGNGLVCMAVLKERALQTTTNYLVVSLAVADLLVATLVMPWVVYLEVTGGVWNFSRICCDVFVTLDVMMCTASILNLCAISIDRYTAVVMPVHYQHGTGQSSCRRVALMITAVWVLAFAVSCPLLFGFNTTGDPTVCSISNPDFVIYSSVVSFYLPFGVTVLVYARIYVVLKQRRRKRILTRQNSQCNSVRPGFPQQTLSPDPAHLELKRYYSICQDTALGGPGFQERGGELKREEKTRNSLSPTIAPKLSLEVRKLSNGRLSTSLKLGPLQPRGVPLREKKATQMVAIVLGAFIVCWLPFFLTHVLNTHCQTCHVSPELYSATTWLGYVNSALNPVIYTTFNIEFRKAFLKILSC

Structure (SMILES): CCCN[C@H]1CCc2nc(N)sc2C1 [pramipexole, (S)-2-amino-4,5,6,7-tetrahydro-6-(propylamino)benzothiazole dihydrochloride monohydrate]
steady-state pharmacokinetic characteristics [1]: linear up to a daily dose of 4.5 mg
affinity for D3 receptors relative to D2 or D4 receptor subtypes (D3 receptors): higher affinity than to D2 or D4 receptor subtypes
intrinsic activity at the D2 subfamily of dopamine receptors [2]: full intrinsic activity

minimal amount of sodium metabisulfite preventing color degradation [3]: 0.2 % wt
Structure (SMILES): O=S([O-])S(=O)(=O)[O-].[Na+].[Na+] [sodium metabisulfite, Sodium metabisulfite]

Structure (SMILES): N[C@@H](Cc1ccc(O)c(O)c1)C(=O)O [levodopa]
fraction of the drug broken down into dopamine before it reaches the brain [4]: about 95%
